Test results reported in US20230011869A1 (Hoffmann-La Roche Inc., priority 2018, published 2023).
Where a name gives a salt, the structure may show the parent alone.

Test system: Acinetobacter baumannii ATCC17978
Experiment: Antimicrobial susceptibility testing: 90% growth inhibitory concentration (IC90) determination, Iso-Sensitest broth
Format: cell-based
Details: 90% growth inhibitory concentration, Acinetobacter baumannii ATCC17978, Iso-Sensitest broth, OD 600 nm over 16 h; read-out: ATCC17978 IC90
Summary of the method: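 A. baumannii ATCC17978 grown in Iso-Sensitest broth across 10 compound concentrations at 35±2 °C.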

Going from `Cc1cc(Nc2nccn3c(-c4ccc(OC(F)F)cc4)cnc23)ccc1C(=O)N1CCN(C(=O)NC2CCNCC2)CC1` [Example 143, 4-[4-[[3-[4-(difluoromethoxy)phenyl]imidazo[1,2-a]pyrazin-8-yl]amino]-2-methyl-benzoyl]-N-(4-piperidyl)piperazine-1-carboxamide hydrochloride] to `Cc1cc(Nc2nccn3c(-c4ccc(OC(F)F)cc4)cnc23)ccc1C(=O)N1CCN(C(=O)NC2CNC2)CC1` [Example 169, N-(azetidin-3-yl)-4-[4-[[3-[4-(difluoromethoxy)phenyl]imidazo[1,2-a]pyrazin-8-yl]amino]-2-methyl-benzoyl]piperazine-1-carboxamide trifluoroacetate], the IC90 rises from 0.16 µM to 0.47 µM (2.9-fold).

`Cc1cc(Nc2nccn3c(-c4ccc(OC(F)F)cc4)cnc23)ccc1C(=O)N1CCN(C(=O)NCC2CNC2)CC1` [Example 144, N-(azetidin-3-ylmethyl)-4-[4-[[3-[4-(difluoromethoxy)phenyl]imidazo[1,2-a]pyrazin-8-yl]amino]-2-methyl-benzoyl]piperazine-1-carboxamide formate] and `Cc1cc(Nc2nccn3c(-c4ccc(OC(F)F)cc4)cnc23)ccc1C(=O)N1CCN(C(=O)NC[C@@H](C)N)CC1` [Example 150, N-[(2R)-2-aminopropyl]-4-[4-[[3-[4-(difluoromethoxy)phenyl]imidazo[1,2-a]pyrazin-8-yl]amino]-2-methyl-benzoyl]piperazine-1-carboxamide hydrochloride] are within 1.5-fold of each other in IC90: 0.13 µM for the first, 0.14 µM for the second.

`COc1ccc(-c2cnc3c(Nc4ccc(C(=O)N5CCN(C(=O)N6CCO[C@@H](CN)C6)CC5)c(C)c4)nccn23)c(F)c1F` [Example 145, [4-[(2S)-2-(aminomethyl)morpholine-4-carbonyl]piperazin-1-yl]-[4-[[3-(2,3-difluoro-4-methoxy-phenyl)imidazo[1,2-a]pyrazin-8-yl]amino]-2-methyl-phenyl]methanone formate] and `COc1ccc(-c2cnc3c(Nc4ccc(C(=O)N5CCN(C(=O)N6CCO[C@H](CN)C6)CC5)c(C)c4)nccn23)c(Cl)c1F` [Example 167, [4-[(2R)-2-(aminomethyl)morpholine-4-carbonyl]piperazin-1-yl]-[4-[[3-(2-chloro-3-fluoro-4-methoxy-phenyl)imidazo[1,2-a]pyrazin-8-yl]amino]-2-methyl-phenyl]methanone formate] are within 1.5-fold of each other in IC90: 0.17 µM for the first, 0.22 µM for the second.

`Cc1cc(Nc2nccn3c(-c4ccc(OC(F)F)cc4)cnc23)ccc1C(=O)N1CCN(C(=O)N2CCO[C@@H](CN)C2)CC1` [Example 146, [4-[(2S)-2-(aminomethyl)morpholine-4-carbonyl]piperazin-1-yl]-[4-[[3-[4-(difluoromethoxy)phenyl]imidazo[1,2-a]pyrazin-8-yl]amino]-2-methyl-phenyl]methanone formate] and `Cc1cc(Nc2nccn3c(-c4ccc(OC(F)F)cc4)cnc23)ccc1C(=O)N1CCN(C(=O)C2CCCN2)CC1` (centres unmarked) [Example 177, [4-[[3-[4-(difluoromethoxy)phenyl]imidazo[1,2-a]pyrazin-8-yl]amino]-2-methyl-phenyl]-[4-(pyrrolidine-2-carbonyl)piperazin-1-yl]methanone hydrochloride] are within 1.5-fold of each other in IC90: 0.3 µM for the first, 0.21 µM for the second.

`COc1ccc(-c2cnc3c(Nc4ccc(C(=O)N5CCN(C(=O)N[C@@H](C)CN)CC5)c(C)c4)nccn23)c(F)c1F` [Example 147, N-[(1S)-2-amino-1-methyl-ethyl]-4-[4-[[3-(2,3-difluoro-4-methoxy-phenyl)imidazo[1,2-a]pyrazin-8-yl]amino]-2-methyl-benzoyl]piperazine-1-carboxamide hydrochloride] and `COc1ccc(-c2cnc3c(Nc4ccc(C(=O)N5CCN(C(=O)N[C@H](C)CN)CC5)c(C)c4)nccn23)c(F)c1F` [Example 148, N-[(1R)-2-amino-1-methyl-ethyl]-4-[4-[[3-(2,3-difluoro-4-methoxy-phenyl)imidazo[1,2-a]pyrazin-8-yl]amino]-2-methyl-benzoyl]piperazine-1-carboxamide hydrochloride] are the same in IC90: 0.21 µM for the first, 0.21 µM for the second.

Compared with `COc1ccc(-c2cnc3c(Nc4ccc(C(=O)N5CCN(C(=O)NC[C@H](C)N)CC5)c(C)c4)nccn23)c(F)c1F` [Example 149, N-[(2S)-2-aminopropyl]-4-[4-[[3-(2,3-difluoro-4-methoxy-phenyl)imidazo[1,2-a]pyrazin-8-yl]amino]-2-methyl-benzoyl]piperazine-1-carboxamide], `COc1ccc(-c2cnc3c(Nc4ccc(C(=O)N5CCN(C(=O)NC[C@@H](C)N)CC5)c(C)c4)nccn23)c(F)c1F` [Example 152, N-[(2R)-2-aminopropyl]-4-[4-[[3-(2,3-difluoro-4-methoxy-phenyl)imidazo[1,2-a]pyrazin-8-yl]amino]-2-methyl-benzoyl]piperazine-1-carboxamide hydrochloride] is 1.6-fold lower in IC90: 0.18 µM for the first, 0.11 µM for the second.

First: Cc1cc(Nc2nccn3c(-c4ccc(OC(F)F)cc4)cnc23)ccc1C(=O)N1CCN(C(=O)NC[C@H](C)N)CC1 [Example 151, N-[(2S)-2-aminopropyl]-4-[4-[[3-[4-(difluoromethoxy)phenyl]imidazo[1,2-a]pyrazin-8-yl]amino]-2-methyl-benzoyl]piperazine-1-carboxamide hydrochloride]
Second: Cc1cc(Nc2nccn3c(-c4ccc(OC(F)F)cc4)cnc23)ccc1C(=O)N1CCN(C(=O)NCCN2CCC2)CC1 [Example 168, N-[2-(azetidin-1-yl)ethyl]-4-[4-[[3-[4-(difluoromethoxy)phenyl]imidazo[1,2-a]pyrazin-8-yl]amino]-2-methyl-benzoyl]piperazine-1-carboxamide formate]
The IC90 of the first is 3.4-fold lower: 0.14 µM for the first, 0.47 µM for the second.

`COc1ccc(-c2cnc3c(Nc4ccc(C(=O)N5CCN(C(=O)NC[C@@H](C)N)CC5)c(C)c4)nccn23)c(Cl)c1F` [Example 155, N-[(2R)-2-aminopropyl]-4-[4-[[3-(2-chloro-3-fluoro-4-methoxy-phenyl)imidazo[1,2-a]pyrazin-8-yl]amino]-2-methyl-benzoyl]piperazine-1-carboxamide formate] and `COc1ccc(-c2cnc3c(Nc4ccc(C(=O)N5CCN(C(=O)NC[C@H](C)N)CC5)c(C)c4)nccn23)c(Cl)c1F` [Example 156, N-[(2S)-2-aminopropyl]-4-[4-[[3-(2-chloro-3-fluoro-4-methoxy-phenyl)imidazo[1,2-a]pyrazin-8-yl]amino]-2-methyl-benzoyl]piperazine-1-carboxamide formate] are within 1.5-fold of each other in IC90: 0.15 µM for the first, 0.18 µM for the second.

`Cc1cc(Nc2nccn3c(-c4ccc(OCC#N)c(F)c4Cl)cnc23)ccc1C(=O)N1CCN(C(=O)N2CCO[C@H](CN)C2)CC1` [Example 157, 2-[4-[8-[4-[4-[(2R)-2-(aminomethyl)morpholine-4-carbonyl]piperazine-1-carbonyl]-3-methyl-anilino]imidazo[1,2-a]pyrazin-3-yl]-3-chloro-2-fluoro-phenoxy]acetonitrile formate] and `Cc1cc(Nc2nccn3c(-c4ccc(OCC#N)c(F)c4Cl)cnc23)ccc1C(=O)N1CCN(C(=O)N[C@H](C)CN)CC1` [Example 160, N-[(1R)-2-amino-1-methyl-ethyl]-4-[4-[[3-[2-chloro-4-(cyanomethoxy)-3-fluoro-phenyl]imidazo[1,2-a]pyrazin-8-yl]amino]-2-methyl-benzoyl]piperazine-1-carboxamide formate] are within 1.5-fold of each other in IC90: 0.092 µM for the first, 0.1 µM for the second.

`Cc1cc(Nc2nccn3c(-c4ccc(OCC#N)c(F)c4Cl)cnc23)ccc1C(=O)N1CCN(C(=O)NC[C@@H](C)N)CC1` [Example 164, N-[(2R)-2-aminopropyl]-4-[4-[[3-[2-chloro-4-(cyanomethoxy)-3-fluoro-phenyl]imidazo[1,2-a]pyrazin-8-yl]amino]-2-methyl-benzoyl]piperazine-1-carboxamide formate] and `Cc1cc(Nc2nccn3c(-c4ccc(OCC#N)c(F)c4Cl)cnc23)ccc1C(=O)N1CCN(C(=O)NC[C@H](C)N)CC1` [Example 165, N-[(2S)-2-aminopropyl]-4-[4-[[3-[2-chloro-4-(cyanomethoxy)-3-fluoro-phenyl]imidazo[1,2-a]pyrazin-8-yl]amino]-2-methyl-benzoyl]piperazine-1-carboxamide formate] are the same in IC90: 0.071 µM for the first, 0.071 µM for the second.

`COc1ccc(-c2cnc3c(Nc4ccc(C(=O)N5CCN(C(=O)N[C@H](C)CN)CC5)c(C)c4)nccn23)c(Cl)c1F` [Example 166, formate] and `COc1ccc(-c2cnc3c(Nc4ccc(C(=O)N5CCN(C(=O)[C@@H]6CCN6)CC5)c(C)c4)nccn23)cc1F` [Example 175, [4-[(2S)-azetidine-2-carbonyl]piperazin-1-yl]-[4-[[3-(3-fluoro-4-methoxy-phenyl)imidazo[1,2-a]pyrazin-8-yl]amino]-2-methyl-phenyl]methanone] are within 1.5-fold of each other in IC90: 0.2 µM for the first, 0.25 µM for the second.

Going from `COc1ccc(-c2cnc3c(Nc4ccc(C(=O)N5CCN(C(=O)C6CCCN6)CC5)c(C)c4)nccn23)cc1F` (centres unmarked) [Example 174, [4-[[3-(3-fluoro-4-methoxy-phenyl)imidazo[1,2-a]pyrazin-8-yl]amino]-2-methyl-phenyl]-[4-(pyrrolidine-2-carbonyl)piperazin-1-yl]methanone] to `COc1ccc(-c2cnc3c(Nc4ccc(C(=O)N5CCN(C(=O)[C@@H]6CCCN6)CC5)c(C)c4)nccn23)cc1F` [Example 178, [4-[[3-(3-fluoro-4-methoxy-phenyl)imidazo[1,2-a]pyrazin-8-yl]amino]-2-methyl-phenyl]-[4-[(2S)-pyrrolidine-2-carbonyl]piperazin-1-yl]methanone hydrochloride], the IC90 falls from 0.3 µM to 0.089 µM (3.4-fold).

`Cc1cc(Nc2nccn3c(-c4ccc(OC(F)F)cc4)cnc23)ccc1C(=O)N1CCN(C(=O)[C@@H]2CCN2)CC1` [Example 176, [4-[(2S)-azetidine-2-carbonyl]piperazin-1-yl]-[4-[[3-[4-(difluoromethoxy)phenyl]imidazo[1,2-a]pyrazin-8-yl]amino]-2-methyl-phenyl]methanone hydrochloride] and `COc1ccc(-c2cnc3c(Nc4ccc(C(=O)N5CCN(C(=O)[C@H]6CCCN6)CC5)c(C)c4)nccn23)cc1F` [Example 179, [4-[[3-(3-fluoro-4-methoxy-phenyl)imidazo[1,2-a]pyrazin-8-yl]amino]-2-methyl-phenyl]-[4-[(2R)-pyrrolidine-2-carbonyl]piperazin-1-yl]methanone hydrochloride] are within 1.5-fold of each other in IC90: 0.13 µM for the first, 0.19 µM for the second.
